PMC3784060 (Cancer Chemotherapy and Pharmacology, 2013)
Several values for one entry are separate records, joined by “and”; a condition that tells them apart may be missing. Equal entries are not always repeated.

What was measured:
[1] = tested on: relapsed/refractory AML and ALL; assay: phase II study in acute leukemia: response, blast/WBC reduction, time to progression; format: in vivo, human; conditions: for median WBC count: pretreatment 2,650
Experimental: Each cycle lasted 21 days. Patient could continue treatment on the study in the absence of disease progression or unacceptable toxicity. The next cycle of therapy could start if non-hematologic toxicity from previous cycle recovered to ≤grade 1, and dose delay of up to 3 weeks was allowed for recovery. Permanent dose reduction was required for any ≥grade 3 clinically significant non-hematologic adverse event (70 mg/m^2 → 50 mg/m^2; 50 mg/m^2 → 40 mg/m^2; 40 mg/m^2 → 30 mg/m^2; 30 mg/m^2 → discontinue). To allow for continued treatment of subjects whose cytopenias were due to leukemia and not due to drug toxicity, subsequent cycles of treatment were allowed if absolute neutrophil count (ANC) ≥0.5 × 10^9/L or for ANC <0.5 × 10^9/L but no more than 20 % below the baseline pretreatment levels and platelet count ≥20 × 10^9/L or platelets <20 × 10^9/L but no more than 20 % below the baseline pretreatment levels. Anti-emetic prophylaxis including serotonin-receptor antagonist, metoclopramide, or prochloperazine with or without dexamethasone was allowed. […] Dexamethasone 20 mg IV was given early if symptoms of cytokine release syndrome were observed.
Response was assessed by bone marrow (BM) examination on day 21 of cycles 1 and 2, and every 6 weeks thereafter until complete remission or progressive disease (PD). Response was determined according to the revised recommendations of the International Working Group (IWG) for AML [33]. Toxicities were graded according to the National Cancer Institute Common Terminology Criteria for Adverse Events (NCI CTCAE), version 3.0 (http://ctep.cancer.gov/protocolDevelopment/electronic_applications/docs/ctcaev3.pdf). Hematologic and chemistry profiles were monitored on day 1 and 2 of each cycle or until resolution of acute toxicities and subsequently at least once a week or more frequently depending on the individual patient’s needs.
The primary efficacy endpoint of the study was the ORR, including complete remission (CR), CR with incomplete count recovery (CRi), and partial remission.

[2] = tested on: Mcl-1, phospho-Rb (Ser807/811), PARP cleavage; assay: pharmacodynamic Western blot on patients' PBMC; format: in vivo, human
Experimental: For Western blot analysis, PB mononuclear cells (PBMC) were isolated by gradient centrifugation using lymphocyte separation medium (LSM) (Mediatech Inc., Manassas, VA, USA), and protein extracts were prepared and analyzed for the expression of Mcl-1, phospho-Rb (Ser807/811), and PARP cleavage as described below.
For Western blot analysis, leukemia cell pellets (primary leukemia cells, HL-60, MOLT-4, K562) were washed with PBS and lysed with RIPA buffer (Sigma-Aldrich, St. Louis, MO, USA) supplemented with Complete Mini™ protease inhibitor and PHOStop™ phosphatase inhibitors (Roche). Equal amounts of proteins up to 25 μg were separated on 4–12 % NuPAGE precast gels in 1X MOPS or 1X MES buffer (Invitrogen) and electro-blotted to PVDF membranes (Millipore, Billerica, MA, USA). The membranes were blocked with 5 % dry milk in 1X TBS/0.1 % Tween 20 for at least 1 h at room temperature. Blots were incubated with primary antibody (Ab) overnight at 4 °C, washed 3 times in TBS/0.1 % Tween 20, and then incubated with secondary Ab for 1 h at room temperature. Blots were washed three times, and the signal was detected with Amersham™ ECL™ detection systems (GE Healthcare, Pittsburgh, PA, USA). The following primary Abs were used: mouse anti-PARP (BD Pharmingen), rabbit anti-phospho-Rb (Ser807/811) and rabbit anti-Mcl-1 (both from Santa Cruz, Santa Cruz, CA, USA), rabbit anti-caspase 9 p35 and anti-caspase 3 (both from Cell Signaling, Danvers, MA, USA), and mouse anti-β-actin (Sigma-Aldrich). […] Secondary horseradish peroxidase-conjugated anti-mouse or anti-rabbit Abs were from Cell Signaling (Beverly, MA, USA). The Western blot signals were measured by densitometry using ImageJ 1.45I software (NIH, Bethesda, USA).

[3] = 13 patients with circulating blasts, within 1–8 days of first dose
[4] = AML patients, all treated subjects
[5] = patients with circulating blasts

## CCc1cnn2c(NCc3ccc[n+]([O-])c3)cc(N3CCCC[C@H]3CCO)nc12 [Dinaciclib]
[1]; 50 mg/m^2 2-h infusion every 21 days, 20 patients
  objective responses by IWG criteria: No objective responses
[1]; 8 of 13 patients with follow-up BM evaluations
  average reduction in BM blasts: 36%
[1]; [3]
  patients with >50 % decrease in absolute blast count (ABC): 77%
  patients with >80 % decrease in absolute blast count (ABC): 46%
[1]; ALL patients
  TTP: 1 to 8.14 weeks
[1]; AML patients included in the initial randomization
  median TTP: 5.14 weeks
[1]; [4]
  Beta Posterior Mean (Bayes estimate of the response rate): 0.071
  Difference in observed response rate (SCH727965 - Mylotarg): -12.500%
  Number of Non-responders: 12
  Number of Responders: 0
  Posterior Probability (This treatment is better): 0.200
[1]; AML patients, all treated subjects, frequentist approach
  Observed Response Rate (%): 0.000%
[1]; all treated AML patients
  Median time to progression, Estimate: 5.14 weeks
  Number of Events (progression): 10
[1]; day 2
  median WBC count: 1,045 × 10^6/L
[1]; day 8
  median WBC count: 1,350 × 10^6/L
[1]; in vivo
  median duration of the WBC nadir: 5 days
  patients with temporary decrease in PB and/or marrow blasts: 60%
[1]; [5]
  duration of ABC nadir: 7 days
  median time to ABC nadir: 3 days
[1]; patients with circulating blasts, pre-treatment 1,130
  median ABC nadir: 2e+08 L⁻¹
[1]; two AML patients who crossed over from GO, individual values
  TTP: 7.86 weeks and 9.14 weeks
[2]; PBMC 4 h after end of infusion, 4 specimens
  down-regulation of Mcl-1: 34–76%
[2]; PBMC 4 h post-treatment
  PARP cleavage: Induction of PARP cleavage was also observed at 4 h
[2]; PBMC 4 h post-treatment, 1 AML and 3 ALL patients
  Mcl-1 expression: decrease in Mcl-1 was seen in all specimens
[2]; PBMC 24 h post-treatment
  Mcl-1 expression: returned to baseline by 24 h
[2]; PBMC, 2 patients had almost undetectable baseline p-Rb
  p-Rb (Ser807/811): Decline in p-Rb was observed in 1 patient
